Measurements taken from US4440784A, “Anti-inflammatory, analgesic, and antipyretic pharmaceutical composition” (Kanegafuchi Chemical Industry Company, Ltd., priority 1981, dated 1984).
Where two headings read alike, the source gives them in different places.

Key:
[1] = system: carrageenan-induced paw edema in rats; experiment: carrageenan-induced paw edema in rats (acute anti-inflammatory activity); assay type: in vivo, male Wistar strain rats; conditions: po, rat, p.o., 50 mg/kg
Procedure: (1) An acute anti-inflammatory activity was evaluated by the method of carrageenan-induced paw edema in rats [C. A. Winter et al., Proc. Soc. […] Six male Wistar strain rats weighing 150~180 g were used in each group. […] The volume of each paw edema was measured 3 and 5 hours after the injection of carrageenan. Percent edema inhibition was calculated by the following equation. [formula]

[2] = system: acetic acid-induced writhing in mice; experiment: acetic acid-induced writhing in mice (analgesic activity); assay type: in vivo, male ddY strain mice; conditions: po; mouse, p.o., 100 mg/kg, 1 hour before acetic acid i.p.; read-out: Inhibition (writhing)
Procedure: An analgesic activity was evaluated by the method of acetic acid-induced writhing in mice [R. Koster et al., Federation Proc., 18, 412 (1959)]. Ten male ddY strain mice weighing 20~25 g were used in each group. Test compounds suspended in 2.5% acacia were administered p.o. to the mice. One hour later, the mice were injected i.p. with 0.6% acetic acid in a volume of 0.1 ml/10 g body weight. The number of writhes in each of mice was counted for 20 minutes after the injection of the acetic acid. Percent inhibition was calculated by the following equation. [formula]

[3] = system: yeast-induced fever in rats; experiment: yeast-induced fever in rats (antipyretic activity); assay type: in vivo, male Wistar strain rats; conditions: po, rat, p.o., 100 mg/kg
Procedure: Five male Wistar strain rats weighing 150~180 g were used in each group. A 20% Baker's yeast suspension in 0.9% NaCl was injected s.c. into the dorsal region of rats in a volume of 1 ml/100 g body weight. […] The rectal temperature was determined with a thermometer, 1, 3 and 5 hours after the administration of test compounds. Percent inhibition was calculated by the following equation. [formula]

[4] = system: adjuvant-induced arthritis in rats; experiment: adjuvant-induced arthritis in rats (chronic anti-inflammatory activity); assay type: in vivo, male Sprague-Dawley strain rats; conditions: rat, p.o. once daily
Procedure: (3) A chronic anti-inflammatory activity was evaluated by the method of adjuvant-induced arthritis in rats [D. T. Walz et al., J. Pharmacol. and Exp. Ther., 178, 223 (1971)]. Eight male Sprague-Dawley strain rats weighing 190~230 g were used in each group. Into the left hind paw of rats was injected i.d. 0.5 mg of Mycobacterium butyricum suspended in 0.05 ml of paraffin oil. Test compounds suspended in 2.5% acacia were administered p.o. once daily for 21 days, starting on the day of the injection of an adjuvant (day 0). Paw volumes of adjuvant-injected and uninjected feet were measured on day 14 and on day 21. Percent inhibition was calculated by the following equation. [formula]

[5] = system: paper disk-induced granuloma in rats; experiment: paper disk-induced granuloma in rats (sub-chronic anti-inflammatory activity); assay type: in vivo, male Wistar strain rats; conditions: rat, p.o. once daily for 7 days
Procedure: Six male Wistar strain rats weighing 150~180 g were used in each group. Each paper disk (29±1 mg) was implanted s.c. into the bilateral area of the scapula of rats under anesthesia with amobarbital sodium. […] The rats were killed on day 7, at which time the paper disks with surrounding granulomatous tissues were removed and dried to constant weight overnight, and weighed. Percent inhibition was calculated by the following equation. [formula]

[6] = toxicity test in mice (LD50); conditions: in vivo, po; mouse, 14 days observation
Procedure: Female ICR strain mice weighing 20~25 g in groups of six each were used for toxicity tests. Test compounds suspended in 2.5% acacia were administered p.o. to the mice. The animals were observed daily for 14 days after the administration. The LD50 values were estimated from mortality (No. of dead mice/No. of mice used).

CC(=O)C=Cc1cc(C(C)(C)C)c(O)c(C(C)(C)C)c1 [Compound V, β-Acetyl-3,5-di-tert-butyl-4-hydroxystyrene]
inhibition in vivo at 50 mg/kg ([1]; 3 hours after carrageenan, read-out: Percent edema inhibition, 3 hours): 43.2% | inhibition in vivo at 50 mg/kg ([1]; 5 hours after carrageenan, read-out: Percent edema inhibition, 5 hours): 50% | inhibition in vivo at 100 mg/kg [2]: 53.1% | inhibition in vivo at 100 mg/kg ([3]; 1 hour after administration, read-out: Inhibition (fever), 1 hour): 34.5% | inhibition in vivo at 100 mg/kg ([3]; 3 hours after administration, read-out: Inhibition (fever), 3 hours): 70.9% | inhibition in vivo at 100 mg/kg ([3]; 5 hours after administration, read-out: Inhibition (fever), 5 hours): 64.9% | Inhibition, injected foot, Day 14 ([4]; 12.5 mg/kg/day): 12.0% | Inhibition, injected foot, Day 21 ([4]; 12.5 mg/kg/day): 29.6% | Inhibition, uninjected foot, Day 14 ([4]; 12.5 mg/kg/day): 10.6% | Inhibition, uninjected foot, Day 21 ([4]; 12.5 mg/kg/day): 14.7% | Inhibition, injected foot, Day 14 ([4]; 50 mg/kg/day): 37.3% | Inhibition, injected foot, Day 21 ([4]; 50 mg/kg/day): 58.8% | Inhibition, uninjected foot, Day 14 ([4]; 50 mg/kg/day): 74.5% | Inhibition, uninjected foot, Day 21 ([4]; 50 mg/kg/day): 69.3% | Inhibition (granuloma) ([5]; 25 mg/kg/day): 29.4% | Inhibition (granuloma) ([5]; 100 mg/kg/day): 29.0% | LD50 at 336 h [6]: > 1000 mg/kg
